From patent US5512464A, “Method of producing high fructose corn syrup from glucose using noble gases” (American Air Liquide, priority 1994, dated 1996)
“Also recorded” adds a separate entry of the source.

Assays:
[1] = tested on: α-amylase; assay: Effect of noble gases on α-amylase reaction; assay type: biochemical, Bacillus licheniformis; details: generally observed
Text: PNPG7 is p-nitrophenyl-α-D-maltoheptaoside.
1. Reaction Principle: [drawing 3] 2.

[2] = target: T1, amyloglucosidase (Aspergillus niger, UniProt P69328); assay: Effect of noble gases on amyloglucosidase reaction; assay type: biochemical; details: amylyoglucoside (so in the source), generally observed
T1 construct: purchased Sigma Chemical A-7420
T1 sequence (P69328 25-640): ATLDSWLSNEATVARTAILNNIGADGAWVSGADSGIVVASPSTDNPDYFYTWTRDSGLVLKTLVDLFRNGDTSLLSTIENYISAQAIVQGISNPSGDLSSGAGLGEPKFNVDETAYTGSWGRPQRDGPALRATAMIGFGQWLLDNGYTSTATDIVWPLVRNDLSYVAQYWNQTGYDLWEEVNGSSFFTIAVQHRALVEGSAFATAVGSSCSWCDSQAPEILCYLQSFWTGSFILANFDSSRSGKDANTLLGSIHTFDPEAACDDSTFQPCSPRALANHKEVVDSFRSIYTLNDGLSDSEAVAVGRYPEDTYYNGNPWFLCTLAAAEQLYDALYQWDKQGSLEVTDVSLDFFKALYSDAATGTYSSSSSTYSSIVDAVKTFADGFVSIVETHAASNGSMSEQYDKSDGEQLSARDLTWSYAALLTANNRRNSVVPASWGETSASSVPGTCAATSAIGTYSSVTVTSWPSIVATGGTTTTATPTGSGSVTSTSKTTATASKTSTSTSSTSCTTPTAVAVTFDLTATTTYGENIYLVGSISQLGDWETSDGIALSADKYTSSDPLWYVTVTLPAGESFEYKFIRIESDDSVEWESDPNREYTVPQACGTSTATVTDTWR
Text: 1. Reaction Principle: [drawing 3] 2. Solution Preparation:

[3] = target: T2, glucose isomerase (Streptomyces murinus, UniProt P37031); assay: Effect of gases on glucose isomerase reaction (vial runs, general statements); assay type: biochemical; details: for order of enhancing effect: glucose isomerase, generally observed
T2 construct: purchased Novo Sweetzyme T
T2 sequence (P37031 whole entry): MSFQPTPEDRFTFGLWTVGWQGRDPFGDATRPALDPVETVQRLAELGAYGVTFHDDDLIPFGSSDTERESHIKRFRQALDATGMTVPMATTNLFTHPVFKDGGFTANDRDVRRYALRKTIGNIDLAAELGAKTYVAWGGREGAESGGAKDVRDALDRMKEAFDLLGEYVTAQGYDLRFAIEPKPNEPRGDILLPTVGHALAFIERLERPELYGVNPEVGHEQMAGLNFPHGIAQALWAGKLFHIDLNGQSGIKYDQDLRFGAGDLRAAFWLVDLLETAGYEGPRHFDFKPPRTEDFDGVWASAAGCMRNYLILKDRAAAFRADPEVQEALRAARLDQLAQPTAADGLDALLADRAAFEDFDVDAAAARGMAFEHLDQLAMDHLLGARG
Protocol: Two sets of 125 ml serum vials are prepared for each studied gas, one containing the glucose substrate solution (80 ml per vial) and the other one containing Sweetzyme T (5 g dry/vial).
On day D, place the substrate vials into a shaking water bath (60° C., 140 rpm). Allow them to equilibrate in temperature. For each substrate vial, fill a 60 cc B-D syringe with the appropriate gas or gas mixture and inject it in the vial. Remove the substrate vial from the shaker bath and replace it with the corresponding enzyme vial. Allow the positive pressure in the substrate vial to fill the syringe with glucose solution up to 60 ml. Stopper syringe needle with a septum. Repeat this procedure for each vial. When all the substrate vials have been sampled, inject the content of each syringe (60 ml of gas-saturated glucose solution) into the corresponding enzyme vial. The enzyme vials are injected at 2 minute intervals. The time of the injection determine t0 for each vial.
The respective concentrations of glucose and fructose in the samples are determined by High Pressure Liquid Chromatography.

[4] = target: T2, glucose isomerase; assay: Glucose isomerase column runs under gas saturation (Example 7); assay type: biochemical; details: for reaching point of equilibrium (fructose to glucose vs glucose to fructose conversion): 100 hr run, gas saturated columns, FIG. 13; for averages of fructose to glucose and glucose to fructose conversions: averages for each gas, FIG. 15; for conversion of glucose to fructose (activity+flow rate difference): lower flow rate, under Ne, Ar and N2, FIG. 11
Protocol: A comprehensive experiment was undertaken in order to relate the effects of noble gases upon the important process parameters of temperature, flow rate, enzyme activity and reaction equilibrium. In this experiment, four identical jacketed 1.6×35 cm (70 cc bed volume) columns containing 15 grams dry weight (40 cc bed volume) of the glucose isomerase packing used in the Vial. Runs were prepared according to the protocol outlined above. The columns and substrates were saturated with the gas of interest from a choice of argon, neon, nitrogen, krypton, xenon, helium, or a decile combination of any two or three of these.
One column was run at 0.2 ml/min at 50°, one at 0.2 ml/min at 60°, one at 0.5 ml/min at 50°, and one at 0.5 ml/min at 60°. […] During the first set of experiments, glucose feedstock (as prepared above) was used. During the second set, fructose feedstock of identical concentration was used to analyze the reverse reaction.
Data collected included flow rate, % glucose, % fructose, quantitative evaluation of fructose and glucose, dry solids, temperature, and residual gases.
Comparison of the data for each combination of experiments allows the determination of the effect of the gas, the temperature, the flow rate, the enzyme activity, and the reaction equilibrium. These are each determined independently, then the contribution of each parameter to the others can be calculated. For instance, elevating the temperature increases the flow rate, while lowering temperature and increasing the flow rate maximizes gas effects.

[5] = Gas solubility; assay type: physicochemical
[6] = tested on: amylase, amyloglucosidase and glucose isomerase; assay: Enzymatic reaction enhancement in the HFCS process (all three enzymes); assay type: biochemical
Text: Generally, in accordance with the present invention, enzymatic reaction enhancements measured in terms of either rate of yield or stability parameters, and are relative to reactions conducted in air or with no added gases, or to reactions run with added nitrogen, or to a combination of the above. Depending upon the relative controls, enhancements of rate between about 0 and 20% and yield enhancements of about 0 to 5% for glucose isomerase have been obtained.

Compound | order of enhancing effect [1] | order of enhancing effect [2] | order of enhancing effect [3] | reaching point of equilibrium (fructose to glucose vs glucose to fructose conversion) [4] | averages of fructose to glucose and glucose to fructose conversions [4] | conversion of glucose to fructose (activity+flow rate difference) [4] | solubility [5] | effectiveness in enhancing enzymatic activity [6] | inhibition of glucose isomerase / Sweetzyme T activity [3]
[Ar] [argon] | Xe>Ar>Ne>Kr>He | Xe>Ar>Ne>Kr>He | Ne>Ar>Kr>Xe>He | reach equilibrium before nitrogen saturated columns | improvement | highest conversion | – | – | –
[He] [helium] | Xe>Ar>Ne>Kr>He | Xe>Ar>Ne>Kr>He | Ne>Ar>Kr>Xe>He | – | – | – | low solubility | effective | –
[Kr] [krypton] | Xe>Ar>Ne>Kr>He | Xe>Ar>Ne>Kr>He | Ne>Ar>Kr>Xe>He | – | – | – | – | – | –
[Ne] [neon] | Xe>Ar>Ne>Kr>He | Xe>Ar>Ne>Kr>He | Ne>Ar>Kr>Xe>He | reach equilibrium before nitrogen saturated columns | improvement | significant but lesser enhancement over nitrogen | – | – | –
O=O [oxygen] | – | – | – | – | – | – | – | – | greatly inhibited; also recorded: inhibitor
[Xe] [xenon] | Xe>Ar>Ne>Kr>He | Xe>Ar>Ne>Kr>He | Ne>Ar>Kr>Xe>He | – | – | – | – | – | –
